Test results from ChEMBL document CHEMBL3885861, “Open TG-GATES”.

Species on record: Rattus norvegicus
Experiment: Open TG-GATES - Regimen: Single
Type: toxicity, organism-based, Sprague-Dawley
Parameters: regimen Single, gender Male, age 6 weeks
Conditions: in vivo, po, 0 mg/kg, route gavage, dose level Control; for APTT / Bas / Eos / Fbg / Hb / Ht / Lym / MCH / MCHC / MCV / Mono / Neu / PT / Plat / RBC / Ret / WBC: tissue Blood; for KIDNEY_L / KIDNEY_R / KIDNEY_TOTAL: tissue Kidney; for LIVER: tissue Liver; for A/G / ALP / ALT / AST / BUN / CRE / Ca / Cl / DBIL / GLC / IP / K / LDH / Na / PL / RALB / TBIL / TC / TG / TP / gamma-GTP: tissue Plasma

O=NN(CCCl)C(=O)NC1CCCCC1 [LOMUSTINE]
TERMINAL_BW (3 h): 205.6 g | APTT (3 h): 16.5 s | Bas (3 h): 0% | Eos (3 h): 0.6% | Fbg (3 h): 207.8 mg/dL | Hb (3 h): 13 g/dL | Ht (3 h): 39.5% | Lym (3 h): 82% | MCH (3 h): 21.7 pg | MCHC (3 h): 32.9% | MCV (3 h): 66 fL | Mono (3 h): 6.4% | Neu (3 h): 11.2% | PT (3 h): 11 s | Plat (3 h): 100.4 x10_4/uL | RBC (3 h): 599.2 x10_4/ul | Ret (3 h): 8.5% | WBC (3 h): 134.2 x10_2/uL | KIDNEY_L (3 h): 0.9 g | KIDNEY_R (3 h): 0.9 g | KIDNEY_TOTAL (3 h): 1.9 g | LIVER (3 h): 10 g | A/G (3 h): 2 | ALP (3 h): 881.4 IU/L | ALT (3 h): 36.4 IU/L | AST (3 h): 66.4 IU/L | BUN (3 h): 14.6 mg/dL | CRE (3 h): 0.6 mg/dL | Ca (3 h): 11.3 mg/dL | Cl (3 h): 106.4 meq/L | DBIL (3 h): 0.072 mg/dL | GLC (3 h): 187 mg/dL | IP (3 h): 9.5 mg/dL | K (3 h): 5 meq/L | LDH (3 h): 89.6 IU/L | Na (3 h): 139.8 meq/L | PL (3 h): 134.4 mg/dL | RALB (3 h): 3.7 g/dL | TBIL (3 h): 0.3 mg/dL | TC (3 h): 76.4 mg/dL | TG (3 h): 50.2 mg/dL | TP (3 h): 5.6 g/dL | gamma-GTP (3 h): 1.4 IU/L | TERMINAL_BW (6 h): 200.9 g | APTT (6 h): 17.4 s | Bas (6 h): 0% | Eos (6 h): 0.6% | Fbg (6 h): 218.2 mg/dL | Hb (6 h): 13.6 g/dL | Ht (6 h): 41.3% | Lym (6 h): 72% | MCH (6 h): 22 pg | MCHC (6 h): 32.9% | MCV (6 h): 66.7 fL | Mono (6 h): 6.6% | Neu (6 h): 20.6% | PT (6 h): 12.2 s | Plat (6 h): 106.2 x10_4/uL | RBC (6 h): 619.2 x10_4/ul | Ret (6 h): 8.9% | WBC (6 h): 71.6 x10_2/uL | KIDNEY_L (6 h): 1 g | KIDNEY_R (6 h): 1 g | KIDNEY_TOTAL (6 h): 2 g | LIVER (6 h): 9.4 g | A/G (6 h): 2 | ALP (6 h): 849.6 IU/L | ALT (6 h): 28.2 IU/L | AST (6 h): 66 IU/L | BUN (6 h): 10.2 mg/dL | CRE (6 h): 0.5 mg/dL | Ca (6 h): 11.1 mg/dL | Cl (6 h): 103.4 meq/L | DBIL (6 h): 0.01 mg/dL | GLC (6 h): 189.6 mg/dL | IP (6 h): 11.2 mg/dL | K (6 h): 5.6 meq/L | LDH (6 h): 116.4 IU/L | Na (6 h): 141.2 meq/L | PL (6 h): 141.6 mg/dL | RALB (6 h): 3.7 g/dL | TBIL (6 h): 0.3 mg/dL | TC (6 h): 78.8 mg/dL | TG (6 h): 50.6 mg/dL | TP (6 h): 5.7 g/dL | gamma-GTP (6 h): 1 IU/L | TERMINAL_BW (9 h): 199.9 g | APTT (9 h): 16.9 s | Bas (9 h): 0% | Eos (9 h): 0.8% | Fbg (9 h): 213.2 mg/dL | Hb (9 h): 13.1 g/dL | Ht (9 h): 40.2% | Lym (9 h): 79.4% | MCH (9 h): 21.7 pg | MCHC (9 h): 32.6% | MCV (9 h): 66.4 fL | Mono (9 h): 6.2% | Neu (9 h): 14% | PT (9 h): 12.5 s | Plat (9 h): 107.9 x10_4/uL | RBC (9 h): 606.2 x10_4/ul | Ret (9 h): 8.8% | WBC (9 h): 91.5 x10_2/uL | KIDNEY_L (9 h): 0.9 g | KIDNEY_R (9 h): 0.9 g | KIDNEY_TOTAL (9 h): 1.8 g | LIVER (9 h): 8.5 g | A/G (9 h): 2.4 | ALP (9 h): 985 IU/L | ALT (9 h): 28 IU/L | AST (9 h): 55.8 IU/L | BUN (9 h): 10.8 mg/dL | CRE (9 h): 0.5 mg/dL | Ca (9 h): 10.8 mg/dL | Cl (9 h): 105.6 meq/L | DBIL (9 h): 0.072 mg/dL | GLC (9 h): 193.6 mg/dL | IP (9 h): 11 mg/dL | K (9 h): 4.8 meq/L | LDH (9 h): 101 IU/L | Na (9 h): 139 meq/L | PL (9 h): 120.8 mg/dL | RALB (9 h): 3.9 g/dL | TBIL (9 h): 0.3 mg/dL | TC (9 h): 67.2 mg/dL | TG (9 h): 43.2 mg/dL | TP (9 h): 5.6 g/dL | gamma-GTP (9 h): 1.4 IU/L | TERMINAL_BW (24 h): 218.2 g | APTT (24 h): 16 s | Bas (24 h): 0% | Eos (24 h): 0.4% | Fbg (24 h): 225 mg/dL | Hb (24 h): 13 g/dL | Ht (24 h): 38.8% | Lym (24 h): 80.4% | MCH (24 h): 22.5 pg | MCHC (24 h): 33.5% | MCV (24 h): 67.2 fL | Mono (24 h): 6.4% | Neu (24 h): 12.4% | PT (24 h): 11.9 s | Plat (24 h): 100.3 x10_4/uL | RBC (24 h): 578.2 x10_4/ul | Ret (24 h): 8.8% | WBC (24 h): 130.7 x10_2/uL | KIDNEY_L (24 h): 1 g | KIDNEY_R (24 h): 1 g | KIDNEY_TOTAL (24 h): 2 g | LIVER (24 h): 11.5 g | A/G (24 h): 2.1 | ALP (24 h): 991.8 IU/L | ALT (24 h): 35 IU/L | AST (24 h): 63.6 IU/L | BUN (24 h): 19.2 mg/dL | CRE (24 h): 0.5 mg/dL | Ca (24 h): 11.3 mg/dL | Cl (24 h): 104.8 meq/L | DBIL (24 h): 0.018 mg/dL | GLC (24 h): 203.8 mg/dL | IP (24 h): 8.4 mg/dL | K (24 h): 5.4 meq/L | LDH (24 h): 130.2 IU/L | Na (24 h): 138.2 meq/L | PL (24 h): 146.6 mg/dL | RALB (24 h): 3.9 g/dL | TBIL (24 h): 0.4 mg/dL | TC (24 h): 79.8 mg/dL | TG (24 h): 96.6 mg/dL | TP (24 h): 5.8 g/dL | gamma-GTP (24 h): 1.4 IU/L
